{
  "source": "patent US20240408175A1",
  "about": "“BMP9 OR AN AGONIST THEREOF AND ITS USES RELATED TO REDUCING METASTASIS OF CANCER” (THE UAB RESEARCH FOUNDATION, priority 2021, published 2024)",
  "key": {"[1]": {"tested_on": "OC cell lines (PA1, OVCA420, OVCAR3, SKOV3, OVCA433)", "assay": "Live/Dead analysis under anchorage independence (anoikis), panel of OC cell lines", "type": "cell-based, human", "conditions": "10 nM for 24 hours after 48 hours anchorage independence"}, "[2]": {"tested_on": "PA1 cells", "assay": "Sulforhodamine B (SRB) growth assay, attached 2D", "type": "cell-based, human", "conditions": "10 nM, 3 days"}, "[3]": {"assay": "Overall toxicity of daily i.p. BMP9 (body weight, kidney and liver function tests)", "type": "in vivo", "conditions": "up to 3 weeks", "protocol": "All animal studies were performed in accordance with the Institutional Animal Care and Use Committee at the University of Alabama Birmingham. Female SCID mice (Key resources table) at 5-7 weeks of age were housed under pathogen-free conditions at the Animal Research Facility at UAB. 1.5×10^6 GFP-luciferase SK-OV3 cells or 3×10^6 GFP-luciferase expressing PA1 cells were intraperitoneally injected. Mice were monitored daily, with girth and weight measurement taken twice a week. Tumor progression was tracked weekly using the IVIS Lumina III In vivo Imaging System (Caliper Life Sciences, MA) at UAB's Small Animal Imaging Facility. rhBMP9 was administered at the time of tumor cell injection followed by daily intraperitoneal (i.p.) injections of 1 mg/mL in 4 mM HCl+PBS+DI water (Vehicle), to achieve a final 5 mg/kg dose. For metastasis and tumor growth analysis, mice were euthanized between 21-50 days depending on the cell line. At necropsy, ascites, if present, were collected and volumes measured when possible, tumor weights in the omentum and other organs were recorded and collected when possible. For survival studies, mice that reached end-point criteria, including continued weight loss, respiratory trouble and permanent recumbency were euthanized. […]"}, "[4]": {"tested_on": "SKOV3-luc-GFP cells", "assay": "SKOV3-luc-GFP intraperitoneal xenograft", "type": "in vivo, NOD-SCID mice", "protocol": "All animal studies were performed in accordance with the Institutional Animal Care and Use Committee at the University of Alabama Birmingham. Female SCID mice (Key resources table) at 5-7 weeks of age were housed under pathogen-free conditions at the Animal Research Facility at UAB. 1.5×10^6 GFP-luciferase SK-OV3 cells or 3×10^6 GFP-luciferase expressing PA1 cells were intraperitoneally injected. Mice were monitored daily, with girth and weight measurement taken twice a week. Tumor progression was tracked weekly using the IVIS Lumina III In vivo Imaging System (Caliper Life Sciences, MA) at UAB's Small Animal Imaging Facility. rhBMP9 was administered at the time of tumor cell injection followed by daily intraperitoneal (i.p.) injections of 1 mg/mL in 4 mM HCl+PBS+DI water (Vehicle), to achieve a final 5 mg/kg dose. For metastasis and tumor growth analysis, mice were euthanized between 21-50 days depending on the cell line. At necropsy, ascites, if present, were collected and volumes measured when possible, tumor weights in the omentum and other organs were recorded and collected when possible. For survival studies, mice that reached end-point criteria, including continued weight loss, respiratory trouble and permanent recumbency were euthanized. For microscopic analysis of tissues, formalin-fixed tissues were processed, paraffin-embedded, and sectioned at 5 μm thickness and H&E stained at UAB's histology core.\nIHC was performed using the BioCare Mach4 Universal Detection Kit. Specifically, anti-SOX2 was diluted in Da Vinci Green Diluent and incubated overnight at 4° C. in a humidified chamber. HRP was detected with 3,30-diaminobenzidine (DAB) substrate for 4 minutes. TUNEL staining was performed according to the manufacturer's instruction. Slides were examined and images captured with EVOS M7000 microscope. Cell profiler (Stirling et al., 2021) and Image J Fiji software were used for image quantification."}, "[5]": {"tested_on": "PA1 cells", "assay": "Microarray transcription profile under anchorage independence", "type": "cell-based, human", "conditions": "24 h, 2-fold change criterion", "protocol": "(§1) Lysate and RNA preparation: 100,000-300,000 cells were seeded in a poly-HEMA coated 6-well plate for indicated times in full serum unless indicated otherwise. Cells were collected by centrifugation and lysed with trizol for RNA extraction or direct 2× lysis buffer for protein lysates.\nTotal cellular RNA was extracted using Trizol reagent according to the manufacturer's protocol. RNA quality was determined using an Agilent 2100 Bioanalyzer and an RNA 6000 Nano kit (Agilent, Cat. No. 5067-1511) with RNA integrity numbers (RIN) ranging from 9.8 to 10. Microarray analyses were performed on the GeneChip™ Human Gene 2.0 ST ArrayS (Thermo Fisher Scientific, Cat. No. 902112) by the functional genomic core at University of South Carolina. Data were imported into the Affymetrix GeneChip Expression Console 1.4.1.46 and processed at the gene-level using the Robust Multichip Analysis (RMA) algorithm to generate CHP files. Experimental-group specific transcriptional responses were determined using unpaired one-way between-subject analysis of variance (ANOVA). Differentially expressed genes with p-values smaller than 0.05 and fold change higher than 2.0 and lower than −2.0 were used for further bioinformatics analysis."}, "[6]": {"tested_on": "SOX2", "assay": "SOX2 expression by Western blot / qRT-PCR in cancer cells", "type": "cell-based, human", "protocol": "as §1\nXenograft data were analyzed using parametric statistics as described in the legends. Survival curves were analyzed with log-rank statistics. In vitro experiments were analyzed using parametric statistics (ANOVA global test with Dunnett's/Sidak multiple comparison test as post-hoc tests as applicable and described in legend) and presented as the mean±SEM. All real time PCR's are relative semi quantitative RT-PCR's (hereby referred to as qRT-PCR) and are a combined quantitation of a minimum of 3 independent biological trials assayed in triplicate with biological replicates represented as individual scatter dots in the graphs or as indicated in legends. In all cases, statistical significance was set at a threshold of p<0.05. All statistical analyses were conducted with GraphPad Prism Software Ver. 9.0 and specific statistical test information described in figure legends."}, "[7]": {"tested_on": "SOX2 promoter methylation", "assay": "Methylation-specific qPCR of SOX2 promoter", "type": "cell-based, human", "conditions": "PA1, rhBMP9 24 h", "protocol": "Genomic DNA was extracted, and bisulfite conversion was performed on 500 ng of gDNA using the MethylAmp DNA modification kit according to manufacturer's instructions. Relative quantitative RT-PCR (qPCR) was performed with methylation-specific and unmethylation-specific primers (see Table 3)."}, "[8]": {"tested_on": "A2780ip2 cells", "assay": "Cell survival under anchorage independence, A2780ip2", "type": "cell-based, human", "conditions": "dose and time course", "protocol": "For Live/Dead analysis under anchorage independence, 1,000 cells were seeded in 96-well hydrogel-coated ultra-low attachment (ULA) plates (Corning #4515) for times indicated. Growth factor treatment was done under low serum 2.5% FBS condition (Cells were plated in 10% FBS to allow spheroid formation before beginning treatment). Cells were then stained with 2 μM Calcein-AM and 4 μM Ethidium-homodimer for 30 min before imaging. z-stacked images were obtained using the Zeiss LSM700 Confocal microscope (Microscopy and Flow Cytometry Core, University of South Carolina) and NIKON A1 Confocal microscope (UAB High Resolution Imaging Facility). Fluorescent quantification was performed using ImageJ Fiji software to calculate the Corrected Total Cell Fluorescent (CTCF)=Integrated Density−(Area of selected cell×Mean fluorescence of background readings) per spheroid."}},
  "data": [
    {"substance": "BMP9: recombinant human bone morphogenetic protein 9 (BMP9/GDF2), TGF-β family ligand", "values": [
      {"measurement": "percentage of dead cells", "setting": "[1]", "value": "increase"},
      {"measurement": "cell growth", "setting": "[2]", "value": "did not alter"},
      {"measurement": "overall toxicity (body weight, kidney and liver function tests)", "setting": "[3]", "value": "no notable toxicity"},
      {"measurement": "mice with detectable ascites", "setting": "[4]; 5 mg/kg i.p. daily", "value": "none"},
      {"measurement": "intraperitoneal tumor growth by BLI in the abdomen", "setting": "[4]; 5 mg/kg i.p. daily, day 16, vs vehicle", "value": "significantly lower"},
      {"measurement": "infiltrated tumor cells in omental tumors (histology)", "setting": "[4]; vs vehicle", "value": "significantly fewer"},
      {"measurement": "increase in TUNEL-positive cells in tumors", "setting": "[4]; vs vehicle-treated mice", "value": 143},
      {"measurement": "downregulated genes", "setting": "[5]", "value": 210},
      {"measurement": "upregulated genes", "setting": "[5]", "value": 333},
      {"measurement": "differentially expressed genes", "setting": "[5]; p<0.05", "value": 543},
      {"measurement": "SOX2 expression in other cancer types", "setting": "[6]; A549, BON-1, H727 cells, 24 hours", "value": "downregulated"},
      {"measurement": "SOX2 in patient ascites-derived tumor cells", "setting": "[6]; EOC15 and AF68, anchorage-independent, 48 hours", "value": "downregulated"},
      {"measurement": "anchorage-independence-induced increases in SOX2", "setting": "[6]; OVCAR4, OVCA420, OVCA433 cells, 3D", "value": "effectively suppressed"},
      {"measurement": "dose-response of SOX2 protein", "setting": "[6]; PA1 and OVCAR3, indicated doses, 24 h", "value": "dose-dependent repression"},
      {"measurement": "SOX2 by qRT-PCR in anchorage-independent conditions", "setting": "[6]; PA1 cells, 3D, 24 hrs", "value": "downregulation"},
      {"measurement": "reduction in SOX2 expression under attached growth conditions", "setting": "[6]; several cell lines incl. OVCAR3 and SKOV3, 10 nM, 24 hours", "value": "significant"},
      {"measurement": "increase in SOX2 promoter methylation compared with control cells", "setting": "[7]", "value": 2.53},
      {"measurement": "decrease in percentage live cells", "setting": "[8]", "value": 30, "unit": "%"}
    ]}
  ]
}
